Results published in patent US7968568B2, “Substituted piperidine derivatives as SST5 modulators” (Hoffmann-La Roche Inc., priority 2006, dated 2011).
pKi: −log10 of the molar value.

What follows are compounds tested against T1, human subtype 5 somatostatin receptor (Homo sapiens, UniProt P35346) (assay: SSTR5 radioligand binding assay (125I-labeled 11-Tyr somatostatin-14) on CHO cell membranes). Details: Ki calculated from IC50 by Cheng-Prussoff equation.
T1 construct: host or cells: CHO cell line, stably transfected; membranes prepared
T1 sequence (P35346 whole entry): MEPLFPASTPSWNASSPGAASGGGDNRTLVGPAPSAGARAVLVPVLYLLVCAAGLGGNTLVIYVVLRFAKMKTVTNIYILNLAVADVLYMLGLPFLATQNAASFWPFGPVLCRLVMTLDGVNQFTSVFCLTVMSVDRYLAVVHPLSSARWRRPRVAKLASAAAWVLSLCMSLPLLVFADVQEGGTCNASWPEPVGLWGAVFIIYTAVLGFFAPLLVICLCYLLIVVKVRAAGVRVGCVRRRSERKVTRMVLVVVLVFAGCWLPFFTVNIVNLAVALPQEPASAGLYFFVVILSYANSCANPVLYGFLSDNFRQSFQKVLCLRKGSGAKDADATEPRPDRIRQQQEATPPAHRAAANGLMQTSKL
Protocol: A CHO cell line stably transfected with a plasmid encoding the human subtype 5 somatostatin receptor (GenBank accession number D16827) was obtained from Euroscreen. Cells were cultured and used for binding and functional assays.
Membranes of these cells were prepared by sonication in the presence of protease inhibitors and subsequent fractionating centrifugation. The protein concentration in the membrane preparation was determined using a commercial kit (BCA kit, Pierce, USA). Membranes were stored at −80° C. until use. After thawing, membranes were diluted in assay buffer (50 mM Tris-HCl at pH 7.4, 5 mM MgCl2 and 0.20% BSA) and subjected to dounce homogenization.
For binding studies, 0.1 mL membrane suspension, corresponding to app. 6×10^−15 mol receptor, was incubated for 1 h at room temperature with 0.05 nM ^125I-labeled tracer (11-Tyr somatostatin-14, Perkin-Elmer) and either test compounds in varying concentrations or, for the determination of non-specific binding, 0.001 mM non-labeled somatostatin-14. The incubation was stopped by filtration through GF/B glassfiber filters and washing with ice-cold wash buffer (50 mM Tris-HCl at pH 7.4). The bound radioactivity was measured after application of a scintillation cocktail (Microscint 40) and expressed as disintegrations per minute (dpm).
The receptor concentration was determined in a prior saturation experiment where a fixed, arbitrary amount of membranes was incubated with a concentration range of radio-labeled tracer. This allows estimating the total number of specific binding sites per amount of protein (i.e., Bmax), typically between 1 and 5 pmol/mg.
The concentration of the test compound required to result in half maximal inhibition of binding of the radio-labeled tracer (IC50) was estimated from a concentration-versus-dpm graph. The binding affinity (Ki) was calculated from the IC50 by applying the Cheng-Prussoff equation for single binding sites.
A pKi of 7.11 was found for C=CCOc1cc(CN2CCC(Nc3nc(Cl)ncc3OC)CC2)ccc1OC [Example 147, [1-(3-allyloxy-4-methoxy-benzyl)-piperidin-4-yl]-(2-chloro-5-methoxy-pyrimidin-4-yl)-amine] in this work. A pKi of 8.70 was found for CCOc1cc(CN2CCC(Nc3ncnc4cc(Cl)ccc34)CC2)ccc1Cl [Example 23, [1-(4-chloro-3-ethoxy-benzyl)-piperidin-4-yl]-(7-chloro-quinazolin-4-yl)-amine] in this work. A pKi of 6.42 was found for CCOc1cc(CN2CCC(Nc3nc(Cl)nc4cc(Cl)c(F)cc34)CC2)ccc1OC [Example 15, (2,7-dichloro-6-fluoro-quinazolin-4-yl)-[1-(3-ethoxy-4-methoxy-benzyl)-piperidin-4-yl]-amine] in this work.
